Measured values: patent publication US7138421B2, “Anti-androgenic pyrrolidines with tumor-inhibiting action” (Schring Aktiengesellschaft, priority 2003, dated 2006)

Test system: LNCaP cells
Experiment: Inhibition of the proliferation of LNCaP cells (crystal violet assay)
Format: cell-based, human
Details: for inhibition at 1 µM / IC50: Homo sapiens, LNCaP; for inhibition at 1 µM: 1 μM test substance, compared to cell growth in the presence of 0.1 nmol of R1881, read-out: % Inhibition at 1 μM; for IC50: in the presence of 0.1 nmol of R1881, 7 to 8 days, read-out: IC50 inhibition of the proliferation of LNCaP cells
Procedure: For the proliferation assay, 6000 LNCaP cells/well (Horoszewicz et al. Cancer Res. 1983, 43, 1809–1817) in a microtiter plate (96-well) in 50 μl of RPMI1640 medium are grown with 5% CCS and cultivated as in Model 1. After 24 hours, the cells receive 50 μl of 2×-concentrated test substance, diluted in culture medium. The solvent concentration is 0.5% DMSO. After 4 days, the cells receive another 100 μl of 1×-concentrated test substance, diluted in culture medium. After 7 to 8 days, the proliferation rate of the cells is determined by means of crystal violet assay (Gillies et al. Anal. Biochem. 1986, 159, 109–113). To determine the antagonism, the substance treatment is performed in the presence of […] of R1881 (1:1000 dilution of ethanolic solution). Control cells receive only 0.5% DMSO. For the agonism, the cells are treated only with test substance (without R1881).

CC1(C)C(=O)N(c2ccc(C#N)c(C(F)(F)F)c2)C(=S)N1CCCCCCN1CCC[C@@H]1CO [Example 6, 4-[3-[6-[(2R)-2-(Hydroxymethyl)pyrrolidin-1-yl]hexyl]-4,4-dimethyl-5-oxo-2-thioxoimidazolidin-1-yl]-2-(trifluoromethyl)benzonitrile]
inhibition at 1 µM: 102%
IC50: 55 nM

CC(C)(O)[C@@H]1CCCN1CCCCCCCCCN1C(=S)N(c2ccc(C#N)c(C(F)(F)F)c2)C(=O)C1(C)C [Example 41, 4-[3-[9-[(2S)-2-(1-Hydroxy-1-methylethyl)pyrrolidin-1-yl]nonyl]-4,4-dimethyl-5-oxo-2-thioxoimidazolidin-1-yl]-2-(trifluoromethyl)benzonitrile]
inhibition at 1 µM: 89%
IC50: 48 nM

CC1(C)C(=O)N(c2ccc(C#N)c(C(F)(F)F)c2)C(=S)N1CCCCCCCCN1CC[C@@H](O)C1 [Example 28, 4-[3-[8-[(R)-3-Hydroxypyrrolidin-1-yl]octyl]-4,4-dimethyl-5-oxo-2-thioxoimidazolidin-1-yl]-2-(trifluoromethyl)benzonitrile]
inhibition at 1 µM: 102%
IC50: 11 nM

COC[C@H]1CCCN1CCCCCCCCN1C(=S)N(c2ccc(C#N)c(C(F)(F)F)c2)C(=O)C1(C)C [Example 18, 4-[3-[8-[(2R)-2-(Methoxymethyl)pyrrolidin-1-yl]octyl]-4,4-dimethyl-5-oxo-2-thioxoimidazolidin-1-yl]-2-(trifluoromethyl)benzonitrile]
inhibition at 1 µM: 103%
IC50: 11 nM

CC1(C)C(=O)N(c2ccc(C#N)c(C(F)(F)F)c2)C(=S)N1CCCCCCCCCN1CC[C@@H](O)C1 [Example 29, 4-[3-[9-[(R)-3-Hydroxypyrrolidin-1-yl]nonyl]-4,4-dimethyl-5-oxo-2-thioxoimidazolidin-1-yl]-2-(trifluoromethyl)benzonitrile]
inhibition at 1 µM: 99%
IC50: 35 nM

CC1(C)C(=O)N(c2ccc(C#N)c(C(F)(F)F)c2)C(=S)N1CCCCCCCCN1CC[C@H](C(N)=O)C1 [Example 51, (S)-1-[8-[3-[4-Cyano-3-(trifluoromethyl)phenyl]-5,5-dimethyl-4-oxo-2-thioxoimidazolidin-1-yl]octyl]pyrrolidine-4-carboxamide]
inhibition at 1 µM: 97%
IC50: 20 nM

CC(C)(O)[C@H]1CCCN1CCCCCCCN1C(=S)N(c2ccc(C#N)c(C(F)(F)F)c2)C(=O)C1(C)C [Example 43, 4-[3-[7-[(2R)-2-(1-Hydroxy-1-methylethyl)pyrrolidin-1-yl]heptyl]-4,4-dimethyl-5-oxo-2-thioxoimidazolidin-1-yl]-2-(trifluoromethyl)benzonitrile]
inhibition at 1 µM: 113%
IC50: 26 nM

CC1(C)C(=O)N(c2ccc(C#N)c(C(F)(F)F)c2)C(=S)N1CCCCCCCCN1C2CCC1CC(O)C2 (stereo not drawn) [Example 24, 4-[3-[8-(3-Hydroxy-8-azabicyclo[3.2.1]oct-8-yl)octyl]-4,4-dimethyl-5-oxo-2-thioxoimidazolidin-1-yl]-2-(trifluoromethyl)benzonitrile]
inhibition at 1 µM: 102%
IC50: 13 nM

COC[C@@H]1CCCN1CCCCCCCCN1C(=S)N(c2ccc(C#N)c(C(F)(F)F)c2)C(=O)C1(C)C [Example 19, 4-[3-[8-[(2S)-2-(Methoxymethyl)pyrrolidin-1-yl]octyl]-4,4-dimethyl-5-oxo-2-thioxoimidazolidin-1-yl]-2-(trifluoromethyl)benzonitrile]
inhibition at 1 µM: 97%
IC50: 25 nM

CC(C)(O)[C@@H]1CCCN1CCCCCCCN1C(=S)N(c2ccc(C#N)c(C(F)(F)F)c2)C(=O)C1(C)C [Example 39, 4-[3-[7-[(2S)-2-(1-Hydroxy-1-methylethyl)pyrrolidin-1-yl]heptyl]-4,4-dimethyl-5-oxo-2-thioxoimidazolidin-1-yl]-2-(trifluoromethyl)benzonitrile]
inhibition at 1 µM: 108%
IC50: 41 nM

CC1(C)C(=O)N(c2ccc(C#N)c(C(F)(F)F)c2)C(=S)N1CCCCN1CCCC1 [Comparison 1, 4-[4,4-Dimethyl-5-oxo-3-[4-(pyrrolidin-1-yl)butyl]-2-thioxoimidazolidin-1-yl]-2-(trifluoromethyl)benzonitrile, reference compound]
inhibition at 1 µM: 20%
IC50: 4300 nM
antiproliferative action (in words) (LNCaP cells): considerably reduced antiproliferative activity

CC1(C)C(=O)N(c2ccc(C#N)c(C(F)(F)F)c2)C(=S)N1CCCCCCN1CC[C@H](C(N)=O)C1 [Example 49, (S)-1-[6-[3-[4-Cyano-3-(trifluoromethyl)phenyl]-5,5-dimethyl-4-oxo-2-thioxoimidazolidin-1-yl]hexyl]pyrrolidine-4-carboxamide]
inhibition at 1 µM: 110%
IC50: 32 nM

CC1(C)C(=O)N(c2ccc(C#N)c(C(F)(F)F)c2)C(=S)N1CCCCCCCN1CC[C@H](O)C1 [Example 31, 4-[3-[7-[(S)-3-Hydroxypyrrolidin-1-yl]heptyl]-4,4-dimethyl-5-oxo-2-thioxoimidazolidin-1-yl]-2-(trifluoromethyl)benzonitrile]
inhibition at 1 µM: 104%
IC50: 20 nM

CC1(C)C(=O)N(c2ccc(C#N)c(C(F)(F)F)c2)C(=S)N1CCCCCCCCCN1CCC[C@H]1CO [Example 13, 4-[3-[9-[(2S)-2-(Hydroxymethyl)pyrrolidin-1-yl]nonyl]-4,4-dimethyl-5-oxo-2-thioxoimidazolidin-1-yl]-2-(trifluoromethyl)benzonitrile]
inhibition at 1 µM: 88%
IC50: 16 nM

CC1(C)C(=O)N(c2ccc(C#N)c(C(F)(F)F)c2)C(=S)N1CCCCCCCN1CC[C@@H](C(N)=O)C1 [Example 53, (R)-1-[7-[3-[4-Cyano-3-(trifluoromethyl)phenyl]-5,5-dimethyl-4-oxo-2-thioxoimidazolidin-1-yl]heptyl]pyrrolidine-4-carboxamide]
inhibition at 1 µM: 97%
IC50: 49 nM

CC1(C)C(=O)N(c2ccc(C#N)c(C(F)(F)F)c2)C(=S)N1CCCCCCCN1CCC[C@@H]1CO [Example 8, 4-[3-[7-[(2R)-2-(Hydroxymethyl)pyrrolidin-1-yl]heptyl]-4,4-dimethyl-5-oxo-2-thioxoimidazolidin-1-yl]-2-(trifluoromethyl)benzonitrile]
inhibition at 1 µM: 101%
IC50: 11 nM

CC1(C)C(=O)N(c2ccc(C#N)c(C(F)(F)F)c2)C(=S)N1CCCCCCCN1C2CCC1CC(O)C2 (stereo not drawn) [Example 23, 4-[3-[7-(3-Hydroxy-8-azabicyclo[3.2.1]oct-8-yl)heptyl]-4,4-dimethyl-5-oxo-2-thioxoimidazolidin-1-yl]-2-(trifluoromethyl)benzonitrile]
inhibition at 1 µM: 79%
IC50: 48 nM

COC[C@@H]1CCCN1CCCCCCCN1C(=S)N(c2ccc(C#N)c(C(F)(F)F)c2)C(=O)C1(C)C [Example 17, 4-[3-[7-[(2S)-2-(Methoxymethyl)pyrrolidin-1-yl]heptyl]-4,4-dimethyl-5-oxo-2-thioxoimidazolidin-1-yl]-2-(trifluoromethyl)benzonitrile]
inhibition at 1 µM: 99%
IC50: 32 nM

CC1CCCN1CCCCCCCN1C(=S)N(c2ccc(C#N)c(C(F)(F)F)c2)C(=O)C1(C)C (stereo not drawn) [Example 35, 4-[4,4-Dimethyl-3-[7-(2-methylpyrrolidin-1-yl)heptyl]-5-oxo-2-thioxoimidazolidin-1-yl]-2-(trifluoromethyl)benzonitrile]
inhibition at 1 µM: 92%
IC50: 30 nM
